Experimental data as given in ChEMBL document CHEMBL1914304 (J Med Chem, 2011).

What was measured:
HEK293 = experiment: Cytotoxicity against human HEK293 cells after 72 hrs by luminescence assay; format: cell-based; conditions: hek293, 72 h
Raji = experiment: Cytotoxicity against human Raji cells after 72 hrs by luminescence assay; format: cell-based
HepG2 = experiment: Cytotoxicity against human HepG2 cells after 72 hrs by luminescence assay; format: cell-based; conditions: hepg2, 72 h
BJ = experiment: Cytotoxicity against human BJ cells after 72 hrs by luminescence assay; format: cell-based
[1] = Selectivity ratio of EC50 for human HepG2 cells to EC50 for Plasmodium falciparum

Compound	Activity (HEK293)	Activity (Raji)	Activity (HepG2)	Activity (BJ)	selectivity ratio [1]
Cl.O=C(CCc1ccc(F)cc1)c1ccccc1OCC(O)CN1CCN(c2ccc(C(F)(F)F)cc2)CC1 (racemic)	Non-toxic	Non-toxic	Non-toxic	Non-toxic	> 10
Cl.O=C(CCc1ccc(F)cc1)c1ccccc1OCC(O)CN1CCN(C(=O)c2ccccc2)CC1 (racemic)	Non-toxic	Non-toxic	Non-toxic	Non-toxic	> 10
CN1CCN(CC(O)COc2ccccc2C(=O)CCc2ccc(F)cc2)CC1.Cl (racemic)	Non-toxic	Non-toxic	Non-toxic	Non-toxic	> 10
CCN1CCN(CC(O)COc2ccccc2C(=O)CCc2ccc(F)cc2)CC1.Cl (racemic)	Non-toxic	Non-toxic	Non-toxic	Non-toxic	> 10
Cl.O=C(CCc1ccc(F)cc1)c1ccccc1OCC(O)CN1CCOCC1 (racemic)	Non-toxic	Non-toxic	Non-toxic	Non-toxic	> 10
Cl.O=C(CCc1ccccc1)c1cc(F)ccc1OCC(O)CN1CCC(Cc2ccccc2)CC1 (racemic)	Non-toxic	Non-toxic	Non-toxic	Non-toxic	> 10
Cl.O=C(CCc1ccccc1)c1cc(F)ccc1OCC(O)CN1CCC(O)(Cc2ccccc2)CC1 (racemic)	Non-toxic	Non-toxic	Non-toxic	Non-toxic	> 10
Cl.O=C(CCc1ccccc1)c1cc(F)ccc1OCC(O)CN1CCNCC1 (racemic)	Non-toxic	Non-toxic	Non-toxic	Non-toxic	> 10
Cl.O=C(CCc1ccccc1)c1cc(F)ccc1OCC(O)CN1CCC(c2ccccc2)CC1 (racemic)	Non-toxic	Non-toxic	Non-toxic	Non-toxic	> 10
Cl.O=C(CCc1ccccc1)c1cc(F)ccc1OCC(O)CN1CCN(c2ccc(Cl)cc2)CC1 (racemic)	Non-toxic	Non-toxic	Non-toxic	Non-toxic	> 10
Cl.O=C(CCc1ccccc1)c1cc(F)ccc1OCC(O)CN1CCN(c2ccccc2)CC1 (racemic)	Non-toxic	Non-toxic	Non-toxic	Non-toxic	> 10
Cl.O=C(CCc1ccccc1)c1cc(F)ccc1OCC(O)CN1CCN(Cc2ccccc2)CC1 (racemic)	Non-toxic	Non-toxic	Non-toxic	Non-toxic	> 10
Cc1ccccc1N1CCN(CC(O)COc2ccc(F)cc2C(=O)CCc2ccccc2)CC1.Cl (racemic)	Non-toxic	Non-toxic	Non-toxic	Non-toxic	> 10
Cc1cccc(N2CCN(CC(O)COc3ccc(F)cc3C(=O)CCc3ccccc3)CC2)c1.Cl (racemic)	Non-toxic	Non-toxic	Non-toxic	Non-toxic	> 10
Cc1ccc(N2CCN(CC(O)COc3ccc(F)cc3C(=O)CCc3ccccc3)CC2)cc1.Cl (racemic)	Non-toxic	Non-toxic	Non-toxic	Non-toxic	> 10
COc1ccccc1N1CCN(CC(O)COc2ccc(F)cc2C(=O)CCc2ccccc2)CC1.Cl (racemic)	Non-toxic	Non-toxic	Non-toxic	Non-toxic	> 10
COc1cccc(N2CCN(CC(O)COc3ccc(F)cc3C(=O)CCc3ccccc3)CC2)c1.Cl (racemic)	Non-toxic	Non-toxic	Non-toxic	Non-toxic	> 10
COc1ccc(N2CCN(CC(O)COc3ccc(F)cc3C(=O)CCc3ccccc3)CC2)cc1.Cl (racemic)	Non-toxic	Non-toxic	Non-toxic	Non-toxic	> 10
Cl.O=C(CCc1ccccc1)c1cc(F)ccc1OCC(O)CN1CCN(c2ccccc2Cl)CC1 (racemic)	Non-toxic	Non-toxic	Non-toxic	Non-toxic	> 10

Compound	Activity (HEK293)	Activity (Raji)	Activity (HepG2)	Activity (BJ)	selectivity ratio [1]
Cl.O=C(CCc1ccccc1)c1cc(F)ccc1OCC(O)CN1CCN(c2ccc(Cl)c(Cl)c2)CC1 (racemic)	Non-toxic	Non-toxic	Non-toxic	Non-toxic	> 10
Cl.O=C(CCc1ccccc1)c1cc(F)ccc1OCC(O)CN1CCN(c2ccccc2F)CC1 (racemic)	Non-toxic	Non-toxic	Non-toxic	Non-toxic	> 10
Cl.O=C(CCc1ccccc1)c1cc(F)ccc1OCC(O)CN1CCN(c2ccc(F)cc2)CC1 (racemic)	Non-toxic	Non-toxic	Non-toxic	Non-toxic	> 10
Cl.O=C(CCc1ccccc1)c1cc(F)ccc1OCC(O)CN1CCN(c2ccc([N+](=O)[O-])cc2)CC1 (racemic)	Non-toxic	Non-toxic	Non-toxic	Non-toxic	> 10
Cl.Nc1ccc(N2CCN(CC(O)COc3ccc(F)cc3C(=O)CCc3ccccc3)CC2)cc1 (racemic)	Non-toxic	Non-toxic	Non-toxic	Non-toxic	> 10
Cl.O=C(CCc1ccccc1)c1cc(F)ccc1OCC(O)CN1CCN(c2ccc(O)cc2)CC1 (racemic)	Non-toxic	Non-toxic	Non-toxic	Non-toxic	> 10
Cl.O=C(CCc1ccccc1)c1cc(F)ccc1OCC(O)CN1CCN(c2ccc(C(F)(F)F)cc2)CC1 (racemic)	Non-toxic	Non-toxic	Non-toxic	Non-toxic	> 10
Cl.O=C(CCc1ccccc1)c1cc(F)ccc1OCC(O)CN1CCN(C(=O)c2ccccc2)CC1 (racemic)	Non-toxic	Non-toxic	Non-toxic	Non-toxic	> 10
CN1CCN(CC(O)COc2ccc(F)cc2C(=O)CCc2ccccc2)CC1.Cl (racemic)	Non-toxic	Non-toxic	Non-toxic	Non-toxic	> 10
CCN1CCN(CC(O)COc2ccc(F)cc2C(=O)CCc2ccccc2)CC1.Cl (racemic)	Non-toxic	Non-toxic	Non-toxic	Non-toxic	> 10
Cl.O=C(CCc1ccc(F)cc1)c1cc(F)ccc1OCC(O)CN1CCCCC1 (racemic)	Non-toxic	Non-toxic	Non-toxic	Non-toxic	> 10
Cl.O=C(CCc1ccc(F)cc1)c1cc(F)ccc1OCC(O)CN1CCC(c2ccccc2)CC1 (racemic)	Non-toxic	Non-toxic	Non-toxic	Non-toxic	> 10
Cl.O=C(CCc1ccc(F)cc1)c1cc(F)ccc1OCC(O)CN1CCC(Cc2ccccc2)CC1 (racemic)	Non-toxic	Non-toxic	Non-toxic	Non-toxic	> 10
Cl.O=C(CCc1ccc(F)cc1)c1cc(F)ccc1OCC(O)CN1CCC(c2ccc(Cl)cc2)CC1 (racemic)	Non-toxic	Non-toxic	Non-toxic	Non-toxic	> 10
Cl.O=C(CCc1ccc(F)cc1)c1cc(F)ccc1OCC(O)CN1CCC(O)CC1 (racemic)	Non-toxic	Non-toxic	Non-toxic	Non-toxic	> 10
Cl.O=C(CCc1ccc(F)cc1)c1cc(F)ccc1OCC(O)CN1CCC(O)(Cc2ccccc2)CC1 (racemic)	Non-toxic	Non-toxic	Non-toxic	Non-toxic	> 10
Cl.O=C(CCc1ccc(F)cc1)c1cc(F)ccc1OCC(O)CN1CCN(c2ccccc2)CC1 (racemic)	Non-toxic	Non-toxic	Non-toxic	Non-toxic	> 10
Cl.O=C(CCc1ccc(F)cc1)c1cc(F)ccc1OCC(O)CN1CCN(Cc2ccccc2)CC1 (racemic)	Non-toxic	Non-toxic	Non-toxic	Non-toxic	> 10
Cl.O=C(CCc1ccccc1)c1cc(F)ccc1OCC(O)CN1CC[N+]([O-])(c2ccc(Cl)cc2)CC1 (racemic)	Non-toxic	Non-toxic	Non-toxic	Non-toxic	> 10
